Results from a melting point compilation (Tetko et al.; mined from patent text by program, amines drawn as free bases though some values may be those of a salt).

Structure (SMILES)	melting point [°C]
O=c1[nH][nH]c(C(F)(F)F)c1Cc1ccc(F)cc1	159 to 160
C1=C(c2ccccc2)CCN(Cc2n[nH]c3c2CCc2ccccc2-3)C1	175 to 176
O=c1[nH]c2ncc(-c3ccc(-c4nnc[nH]4)cc3)nc2n1CCN1CCOCC1	295 to 297
Nc1nc2c(c(Nc3ccc(F)c(Cl)c3)n1)-c1ccccc1C2	232 to 233
COc1ccc(CCc2cc3c(s2)NC(=S)CN=C3c2ccccc2Cl)cc1	185 to 186
Cc1ccc2c(NCc3ccc(NC(=O)c4ccc(F)cc4)cc3)nc(NC3CCN(Cc4ccccc4)CC3)nc2c1	135 to 138
CC(C)(C)C(=O)OC1C(c2ccccc2)=C(c2ccc(S(C)(=O)=O)cc2)C1(C)C (stereo unspecified)	66 to 67
Sc1nc2ccccc2c2nc(-c3ccoc3)nn12	290 to 292
CC1CCC(C(C)C)C(C(=O)NC(C)(C)C)C1 (stereo unspecified)	145 to 146
CCCCn1c(Nc2cc(Cl)cc(C(F)(F)F)c2)nc(C(F)(F)F)cc1=O	157 to 158
CNc1nc(-c2ccc(F)cc2)c(-c2ccc(S(C)(=O)=O)cc2)s1	243 to 244
CC12CCC(C(=O)O)=CC1=CCC1C2CCC2(C)C(C(=O)NC3C4CC5CC(C4)CC3C5)CCC12 (stereo unspecified)	214 to 216
CCC(C)(CC)C(=O)N[C@H]1C[C@@H]2c3cccc4[nH]c(C)c(c34)C[C@H]2N(C)C1	191 to 192
Cc1cnc2c(c1)c(C#N)c(-c1ccc(S(=O)(=O)N[C@@H](C)C(F)(F)F)cn1)n2C1CCC1	177 to 179
Cc1noc(-c2ncn3c2[C@@H]2CCN2C(=O)c2c(Cl)cccc2-3)n1	239 to 240
CCOC(=O)c1c(C(F)(F)F)nc(C(F)(F)F)c(C(=O)OCC)c1C	55 to 58
O=C(CCCN1CC=C(c2cccc3[nH]ccc23)CC1)c1ccc(F)cc1	155
Cc1ccc(C2c3c(C)c(NCc4ccc(F)cc4)c(C)c(C)c3OC2(C)C)cc1 (stereo unspecified)	92 to 94
CCCCc1nn(-c2cc(N)ccc2Cl)c(=O)n1Cc1ccc(-c2ccccc2S(=O)(=O)NC(=O)OC(C)(C)C)cc1	185 to 188
CN(c1ccc(OC2CCCC2)cc1)S(C)(=O)=O	120 to 122
CCC1(C)SC(N(C)C(=O)NC)=NN1C(=O)C(C)(C)C (stereo unspecified)	124 to 127
Cc1nnc2n1-c1sc(CC(=O)O)cc1C(c1ccccc1Cl)=NC2C (stereo unspecified)	222 to 225
Nc1nc2ccccc2c2c1ncn2CCCCCC(=O)N1CCOCC1	166 to 168
CS(=O)(=O)c1ccc(-n2cnc(Cl)c2-c2ccc(Cl)cc2)cc1	222 to 223
O=C(O)C1=Cc2c(ccc(Cl)c2-c2ccsc2)OC1C(F)(F)F (stereo unspecified)	211 to 214
CC(=O)NNc1nc(C(F)(F)F)nc(-c2ccccc2)c1-c1ccccc1	113 to 116
C[C@H](NC(=O)c1c[nH]c2ncc(-c3cn(-c4cc(C(F)(F)F)ccc4F)cn3)nc12)C(C)(C)C	> 300
O=C1c2ccccc2C(=O)N1c1cccc(CBr)n1	169 to 170
CC(=O)N1CCC(Oc2ccc([N+](=O)[O-])cc2)(c2ccccc2)CC1	145 to 150

The next lines start with the values.

melting point [°C]	Structure (SMILES)
148 to 150	COc1cc(C=O)c([N+](=O)[O-])cc1OCCCl
192	CCC(C)(C)Nc1c(NCc2ccccn2)c(=O)c1=O
114 to 116	O=c1[nH]c(Cc2ccccc2)no1
280 to 282	Cc1ncnc2nc(N)c(-c3c(Cl)cccc3Cl)cc12
131 to 133	CSc1c(O)cncc1Oc1ccccc1
148	COC(=O)C(c1ccccc1)(c1ncc[nH]1)c1ccccc1C (stereo unspecified)
144 to 146	COc1cc(-c2ccccc2C)ccc1C(=O)N1Cc2ccc(C(=O)N(C)CC(O)C(O)C(O)C(O)CO)n2Cc2ccccc21 (stereo unspecified)
137 to 140	O=[N+]([O-])c1ccccc1OC1SCC(O)C(O)C1O (stereo unspecified)
154 to 156	Cc1ccnc2c1C(O)c1ccccc1-2 (stereo unspecified)
72 to 73	Cc1c(OCCCCCCC(=O)N(C)c2ccccc2)ccc([N+](=O)[O-])c1C=O
180 to 181	CCOC(=O)c1cc2cccc(NS(=O)(=O)c3ccc(Cl)s3)c2[nH]1
170 to 171	CCC(=O)NC1=NN(c2ccccc2)CC1
221 to 225	COC(=O)c1ccc(C(F)(F)F)cc1N(S(C)(=O)=O)S(C)(=O)=O
100 to 101	CCOC(=O)c1cc2c(C)c(OCc3ccccc3)ccc2n1C
125	CCCCc1[nH]c2ccc([N+](=O)[O-])cc2c1C(=O)c1ccc(OCCCCl)cc1
127 to 128	O=C(CCC(=O)N1CCC(c2ccc(F)cc2)CC1)c1ccc2c(c1)CCNCC2
109 to 112	CCOC(=O)CSc1nc(Cl)cc(Nc2ccc(Cl)cc2)n1
305 to 306	O=C(O)CCCOc1ccc(N2CCN(c3ccncc3)CC2)cc1
95 to 97	CCCCNc1c(C(=O)OCC)cnc2nn(C)cc12
124	CC(C)(C)OC(=O)NCC(=O)OCCCNc1ccc(O)c2c1C(=O)c1ccccc1C2=O
70 to 74	CCC1c2cccn2-c2ccc(F)cc2N1C(=O)c1cccc(OC)c1 (stereo unspecified)

melting point [°C]	Structure (SMILES)
183 to 187	CN1C(=O)CC[C@]2(C)c3ccc(-c4ccc5ncsc5c4)cc3CC[C@@H]12
59 to 61	O=C(CC1CCCC1=O)c1ccc(Br)cc1 (stereo unspecified)
151 to 152	CCCc1ccc2nc(C(F)(F)F)c(S(N)(=O)=O)n2n1
284 to 286	Cc1cc(S(=O)(=O)O)c(NC(=O)Nc2cc3ccccc3[nH]2)cc1Cl
89 to 90	CCOC(=O)C1=CC(CF)(CF)Oc2ccc(I)cc21
> 250	COc1cc2[nH]c(=O)c(-c3csc(-c4cccnc4)n3)c(N)c2cc1OC
163	c1ccc(COc2n[nH]cc2-c2ccccc2)cc1
193 to 194	CC1CC(=O)NN=C1c1ccc2c(c1)SCC(=O)N2C (stereo unspecified)
156 to 159	CC(=O)N[C@@H](C)COc1ccc2nc(-c3ccc(OCC4CC4)c(Cl)c3)oc2c1
215 to 217	CC(C)(C)N(Cc1ccccc1)CC(O)COc1cccc2c1CNC(=O)N2 (stereo unspecified)
135 to 141	Cc1ccccc1C(=O)Nc1ccc(C(=O)Cl)cc1
> 240	COc1cc(C(=N)N)ccc1O
99 to 100	Cc1cccc(C2=NN(C(=O)c3cccnc3)CC2)c1
212 to 213	O=C(O)C1CCc2c(c3ccccc3n2C(=O)c2ccc(-c3ccccc3)cc2)C1 (stereo unspecified)
97	Oc1cccc(O)c1Cl
137 to 140	CC(=O)C(C(C)=O)C(=O)NS(=O)(=O)c1ccc(C)cc1
96 to 97	CCC(CC(=O)NC(=O)OC(C)(C)C)Nc1ccc(C)cc1 (stereo unspecified)
256 to 258	N#Cc1ccccc1NC(=O)Nc1ccc(S(N)(=O)=O)cc1
322 to 323	NC(=O)c1ccc2c(c1)C(=O)c1cc(F)ccc1C2=O
248 to 250	Cc1nc2cc3c(cc2c(=O)[nH]1)C(N(C)c1ccc(C(=O)NC(CCc2nnn[nH]2)C(=O)O)nc1)CC3 (racemic)
176 to 178	CCn1c(=O)nc(-c2ccccc2)c2cc(Cl)ccc21
